# Laboratory results as given in US10294202B2, “Pyrrolidinones as herbicides” (FMC Corporation, priority 2013, dated 2019).
# Legend:
# surinam grass = assay: Test C pre-/postemergence herbicide test; type: in vivo, Brachiaria decumbens; settings: Preemergence
# In short: (§1)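 Greenhouse pots; formulation = non-phytotoxic solvent mix + surfactant. PRE onto seeds in loam:sand; POST at 1–4 leaves (2–18 cm) in peat moss/vermiculite medium. Read-out: visual % control vs untreated, day 13–15.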
# foxtail, green = assay: Test C pre-/postemergence herbicide test; type: in vivo, Setaria viridis; settings: Preemergence; for Foxtail, Green plant response rating: 31 g ai/ha
# In short: as §1
# goosegrass = assay: Test C pre-/postemergence herbicide test; type: in vivo, Eleusine indica; settings: Preemergence; for Goosegrass plant response rating: 31 g ai/ha
# In short: as §1
# bromegrass, downy = assay: Test C pre-/postemergence herbicide test; type: in vivo, Bromus tectorum; settings: Preemergence; for Bromegrass, Downy plant response rating: 31 g ai/ha
# In short: as §1
# nightshade = assay: Test C pre-/postemergence herbicide test; type: in vivo, Solanum ptycanthum; settings: Preemergence
# In short: as §1
# cocklebur = assay: Test C pre-/postemergence herbicide test; type: in vivo, Xanthium strumarium; settings: Preemergence; for Cocklebur plant response rating: 31 g ai/ha
# In short: as §1
# cupgrass, woolly = assay: Test C pre-/postemergence herbicide test; type: in vivo, Eriochloa villosa; settings: Preemergence; for Cupgrass, Woolly plant response rating: 31 g ai/ha
# In short: as §1
# bermudagrass = assay: Test C pre-/postemergence herbicide test; type: in vivo, Cynodon dactylon; settings: Preemergence; for Bermudagrass plant response rating: 31 g ai/ha
# In short: as §1
# sunflower = assay: Test C pre-/postemergence herbicide test; type: in vivo, Helianthus annuus; settings: Preemergence
# In short: as §1
# Russian thistle = assay: Test C pre-/postemergence herbicide test; type: in vivo, Salsola kali; settings: Preemergence
# In short: as §1
# crabgrass, large = assay: Test E preemergence herbicide test; type: in vivo, Digitaria sanguinalis; parameters: key: 0 = no effect, 100 = complete control
# Excerpt: Seeds of plant species selected from corn (Zea mays), soybean (Glycine max), velvetleaf (Abutilon theophrasti), lambsquarters (Chenopodium album), wild poinsettia (Euphorbia heterophylla), pigweed, palmer (palmer pigweed, Amaranthus palmeri), waterhemp (common waterhemp, Amaranthus rudis), surinam grass (Brachiaria decumbens), crabgrass, large (large crabgrass, Digitaria sanguinalis), crabgrass, Brazil (Brazilian crabgrass, Digitaria horizontalis), panicum, fall (fall panicum, Panicum dichotomiflorum), foxtail, giant (giant foxtail, Setaria faberii), foxtail, green (green foxtail, Setaria viridis), goosegrass (Eleusine indica), johnsongrass (Sorghum halepense), ragweed (common ragweed, Ambrosia elatior), barnyardgrass (Echinochloa crus-galli), sandbur (southern sandbur, Cenchrus echinatus), arrowleaf […] rhombifolia), ryegrass, Italian (Italian ryegrass, Lolium multiflorum), dayflower, VA (Virginia dayflower, Commelina virginica), field bindweed (Convolvulus arvensis), morningglory (Ipomoea coccinea), nightshade (eastern black nightshade, Solanum ptycanthum), kochia (Kochia scoparia), nutsedge, yellow (yellow nutsedge, Cyperus esculentus), cocklebur (common cocklebur, Xanthium strumarium), smartweed (ladysthumb smartweed, Polygonum Persicaria) and beggarticks (hairy beggarticks, Bidens pilosa), were planted into a silt loam soil and treated preemergence with test chemicals formulated in a non-phytotoxic solvent mixture which included a surfactant. Treated plants and controls were maintained in a greenhouse for 21 days, after which time all species were compared to controls and visually evaluated. Plant response ratings, summarized in Table E, are based on a scale of 0 to 100 where 0 is no effect and 100 is complete control. A dash (-) response means no test result.
# [1] = 125 g ai/ha, scale 0 to 100 (0 no effect, 100 complete control)
# [2] = scale 0 to 100 (0 no effect, 100 complete control)
# [3] = 250 g ai/ha, scale 0 to 100 (0 no effect, 100 complete control)
# [4] = 31 g ai/ha, scale 0 to 100, 0 is no effect and 100 is complete control
# [5] = scale 0 to 100, 0 is no effect and 100 is complete control
Structure (SMILES),"Plant response rating, Surinam Grass (surinam grass; 62 g ai/ha, scale 0 to 100)","Plant response rating, Surinam Grass (surinam grass; [1])","Plant response rating, Foxtail, Green (foxtail, green; 62 g ai/ha, scale 0 to 100)","Plant response rating, Foxtail, Green (foxtail, green; [1])","Plant response rating, Foxtail, Green (foxtail, green; [3])","Plant response rating, Goosegrass (goosegrass; 62 g ai/ha, scale 0 to 100)","Plant response rating, Goosegrass (goosegrass; [1])","Plant response rating, Bromegrass, Downy (bromegrass, downy; 62 g ai/ha, scale 0 to 100)","Plant response rating, Bromegrass, Downy (bromegrass, downy; [1])","Plant response rating, Bromegrass, Downy (bromegrass, downy; [3])","Plant response rating, Nightshade (nightshade; 62 g ai/ha, scale 0 to 100)","Plant response rating, Nightshade (nightshade; [1])","Plant response rating, Cupgrass, Woolly (cupgrass, woolly; 62 g ai/ha, scale 0 to 100)","Plant response rating, Cupgrass, Woolly (cupgrass, woolly; [1])","Plant response rating, Cupgrass, Woolly (cupgrass, woolly; [3])","Plant response rating, Bermudagrass (bermudagrass; 62 g ai/ha, scale 0 to 100)","Plant response rating, Crabgrass, Large (crabgrass, large; 31 g ai/ha)","Plant response rating, Crabgrass, Large (crabgrass, large; 62 g ai/ha)","Plant response rating, Crabgrass, Large (crabgrass, large; 125 g ai/ha)","Plant response rating, Crabgrass, Large (crabgrass, large; 250 g ai/ha)",further results
O=C1NCC(c2ccc(F)cc2)C1C(=O)Nc1ccccc1F (racemic) [Compound 16],95,98,35,80,90,0,0,5,30,35,0,0,95,95,95,0,20,30,75,98,"Foxtail, Green plant response rating (foxtail, green; [2]): 5; Goosegrass plant response rating (goosegrass; [2]): 0; Bromegrass, Downy plant response rating (bromegrass, downy; [2]): 0; Cocklebur plant response rating (cocklebur; [2]): 0; Plant response rating, Cocklebur (cocklebur; 62 g ai/ha, scale 0 to 100): 0; Plant response rating, Cocklebur (cocklebur; [1]): 0; Plant response rating, Cocklebur (cocklebur; [3]): 0; Cupgrass, Woolly plant response rating (cupgrass, woolly; [2]): 55; Bermudagrass plant response rating (bermudagrass; [2]): 0; Plant response rating, Bermudagrass (bermudagrass; [1]): 90; Plant response rating, Bermudagrass (bermudagrass; [3]): 95; Plant response rating Sunflower (sunflower; 62 g ai/ha, scale 0 to 100): 0; Plant response rating Sunflower (sunflower; [1]): 0; Plant response rating, Russian Thistle (Russian thistle; 62 g ai/ha, scale 0 to 100): 0; Plant response rating, Russian Thistle (Russian thistle; [1]): 0; Plant response rating, Crabgrass, Large (crabgrass, large; 16 g ai/ha): 10"
O=C1NCC(c2cccc(Br)c2)C1C(=O)Nc1ccccc1F (centres unmarked) [Compound 66],0,75,80,90,98,5,10,0,0,5,0,0,75,80,85,0,10,75,90,98,"Surinam Grass plant response rating (surinam grass; [4]): 0; Foxtail, Green plant response rating (foxtail, green; [5]): 50; Goosegrass plant response rating (goosegrass; [5]): 5; Bromegrass, Downy plant response rating (bromegrass, downy; [5]): 0; Nightshade plant response rating (nightshade; [4]): 0; Cocklebur plant response rating (cocklebur; [5]): 0; Cupgrass, Woolly plant response rating (cupgrass, woolly; [5]): 10; Bermudagrass plant response rating (bermudagrass; [5]): 0; Plant response rating, Bermudagrass (bermudagrass; [1]): 0; Plant response rating, Bermudagrass (bermudagrass; [3]): 0; Sunflower plant response rating (sunflower; [4]): 0; Plant response rating Sunflower (sunflower; 62 g ai/ha, scale 0 to 100): 0; Plant response rating Sunflower (sunflower; [1]): 0; Russian Thistle plant response rating (Russian thistle; [4]): 0; Plant response rating, Russian Thistle (Russian thistle; 62 g ai/ha, scale 0 to 100): 0; Plant response rating, Russian Thistle (Russian thistle; [1]): 0; Plant response rating, Crabgrass, Large (crabgrass, large; 16 g ai/ha): 0"
O=C1NCC(c2ccc(C(F)(F)F)cc2)C1C(=O)Nc1ccc(F)c(F)c1F (centres unmarked) [Compound 232],,,,,,,,,,,,,,,,,95,98,98,98,
